Where two headings read alike, the source gives them in different places.
Tests used:
[1] = system: BDNF mRNA in CCF-STTG1 cells; experiment: qPCR of BDNF steady-state mRNA; type: cell-based, human; conditions: 3 hr
U87MG cells = experiment: BDNF secretion by in situ ELISA, U87MG; conditions: 72 hrs treatment
CCF-STTG1 cells = experiment: BDNF secretion by in situ ELISA, CCF-STTG1; conditions: for BDNF secretion from CCF-STTG1 cells, compound alone: 72 hrs treatment
BV-2 cells = experiment: BDNF secretion by in situ ELISA, BV-2; type: cell-based, murine; conditions: 10 μM
human S1R [2] = biological target: T1, human S1R (Homo sapiens, UniProt Q99720); experiment: Competition binding with [3H]-
T1 sequence (Q99720 whole entry): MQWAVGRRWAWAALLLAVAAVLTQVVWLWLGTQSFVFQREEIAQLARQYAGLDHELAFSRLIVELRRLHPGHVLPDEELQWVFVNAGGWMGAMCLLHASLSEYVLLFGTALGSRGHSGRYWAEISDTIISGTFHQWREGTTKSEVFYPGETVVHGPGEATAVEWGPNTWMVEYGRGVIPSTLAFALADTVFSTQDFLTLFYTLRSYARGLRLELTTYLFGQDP

human S2R = human S2R (Homo sapiens, UniProt Q5BJF2); experiment: Competition binding with [3H]DTG at S2R in untransfected MCF-7 cells; conditions: for IC50: read-out: IC50 at S2R; for IC50 / Ki: MCF-7, ± SEM; for Ki: read-out: Ki at S2R
Chain of human S2R (Q5BJF2 whole entry): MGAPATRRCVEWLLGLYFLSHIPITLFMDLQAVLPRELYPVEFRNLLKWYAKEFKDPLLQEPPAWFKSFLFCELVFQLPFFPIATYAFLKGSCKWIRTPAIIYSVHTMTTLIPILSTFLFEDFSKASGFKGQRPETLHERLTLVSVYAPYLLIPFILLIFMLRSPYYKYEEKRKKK

EP2R = conditions: 10 μM; ref af Forselles et al., 2011; cited from earlier work
human S1R [3] = biological target: T1, human S1R; conditions: ref Lee et al., 2008, cited from earlier work
ischemic stroke = conditions: acute low dose 0.05 mg/kg, s.c., rats; ref Schetz et al., 2007; cited from earlier work
[4] = 15 nM, Fractional Occupancy = [ligand]/([ligand]+Ki)

OC(CCCN1CCC(O)(c2ccc(Cl)cc2)CC1)c1ccc(F)cc1 (racemic) [reduced haloperidol, (±)-4-(4-Chlorophenyl)-α-(4-fluorophenyl)-4-hydroxy-1-piperidinebutanol]
effect on BDNF mRNA levels ([1]; 10 μM): no effect on BDNF mRNA levels
BDNF secretion from U87MG cells, compound alone (U87MG cells): facilitated BDNF secretion
BDNF secretion from CCF-STTG1 cells, compound alone (CCF-STTG1 cells): facilitated BDNF secretion

c1ccc(CCCCN2CCC(c3ccccc3)CC2)cc1 [4-PPBP]
BDNF secretion from BV-2 cells, compound alone (BV-2 cells): failed to significantly stimulate the secretion of detectable levels of BDNF
BDNF signal above DMSO vehicle (BV-2 cells; BV-2 cells, P = 0.4): 1.1 ± 0.06 fold
effect on BDNF mRNA levels ([1]; 10 μM): no effect on BDNF mRNA levels
BDNF secretion from CCF-STTG1 cells, compound alone (CCF-STTG1 cells): facilitated BDNF secretion

CN1CCN(CCc2ccc(Cl)c(Cl)c2)CC1 [BD1063]
expected S1R occupancy (human S1R [2]; 2 nM): 27%
calculated S1R occupancy (human S1R [2]; [4]): 74%
Ki(S2R)/Ki(S1R) selectivity (human S1R [2]; S1R over S2R): 37 fold
IC50 (human S1R [2]; read-out: IC50 at S1R, [3H]-(+)-pentazocine, MCF-7-S1R, ± SEM): 6.5 ± 0.87 nM
Ki (human S1R [2]; read-out: Ki at S1R, [3H]-(+)-pentazocine, MCF-7-S1R, ± SEM): 5.3 ± 0.71 nM
calculated S2R occupancy (human S2R; [4]): 7%
IC50 (human S2R; [3H]-DTG): 208 ± 30 nM
Ki (human S2R; [3H]-DTG): 194 ± 28 nM
BDNF secretion from CCF-STTG1 cells, compound alone (CCF-STTG1 cells): no effect on its own
effect on PGE2-stimulated BDNF response mediated by EP2R (CCF-STTG1 cells; S1R-selective dose of BD1063): does not modify the PGE2 stimulated response
effect on BDNF secretion produced by S1R agonists 4-PPBP and (+)-SKF10047 (CCF-STTG1 cells; antagonist 15 nM): significantly reduced BDNF secretion
effect on BDNF secretion produced by haloperidol metabolites I and II (CCF-STTG1 cells; antagonist BD1063 co-applied): significantly diminished BDNF secretion

C=C[C@@]1(C)CC(=O)[C@]2(O)[C@@]3(C)[C@@H](O)CCC(C)(C)[C@@H]3[C@H](O)[C@H](OC(C)=O)[C@@]2(C)O1 [Forskolin]
increase in BDNF mRNA levels ([1]; 100 μM forskolin + 100 μM IBMX, normalized to vehicle): > 3 fold

CC(C)Cn1c(=O)n(C)c(=O)c2[nH]cnc21 [IBMX]
effect on BDNF mRNA levels ([1]; 100 μM): no effect on BDNF mRNA levels

CCCN(CCC)CCc1ccc(OC)c(OCCc2ccccc2)c1 [NE100]
IC50 (human S2R; [3H]-DTG): 46 ± 6.4 nM
Ki (human S2R; [3H]-DTG): 43 ± 6 nM

COc1ccc2cc(OCC3(C(=O)O)CN(C(=O)c4ccc(F)cc4)C3)ccc2c1 [PF-04418948]
EP2 receptor occupancy (EP2R): 99.9%
BDNF secretion from CCF-STTG1 cells, compound alone (CCF-STTG1 cells): no effect by itself
effect on PGE2-stimulated BDNF secretion (CCF-STTG1 cells; antagonist 10 μM vs PGE2): blocked the stimulatory effect of PGE2

CCCCC[C@H](O)/C=C/[C@H]1[C@H](O)CC(=O)[C@@H]1C/C=C\CCCC(=O)O [PGE2, Prostaglandin E2]
displacement of specifically bound radioligand from S1R (human S1R [2]; 10 μM, [3H]-(+)-pentazocine): unable to displace
displacement of specifically bound radioligand from S2R (human S2R; 10 μM, [3H]-DTG): unable to displace
secreted BDNF, maximal stimulation (CCF-STTG1 cells; 10 μM, ± SEM, n = 6 experiments, baseline 75.4 ± 6.9): 128.6 ± 12.8 pg/mL
BDNF secretion from CCF-STTG1 cells, compound alone (CCF-STTG1 cells): secreted BDNF in a concentration-dependent manner

CN1CCN(C2=Nc3cc(Cl)ccc3Nc3ccccc32)CC1 [clozapine]
affinity for the S1R, in words (human S1R [3]): essentially no affinity

OC1(c2ccc(Cl)cc2)CCNCC1 [haloperidol metabolite I, 4-(4-Chlorophenyl)-4-hydroxypiperidine]
effect on BDNF mRNA levels ([1]; 100 μM): no effect on BDNF mRNA levels
Ki (human S1R [3]; read-out: affinity (Ki) for the S1R): 128 nM
fold lower affinity for the S1R than haloperidol and reduced haloperidol (human S1R [3]): > 75 fold
BDNF secretion from U87MG cells, compound alone (U87MG cells): facilitated BDNF secretion
BDNF secretion from CCF-STTG1 cells, compound alone (CCF-STTG1 cells): facilitated BDNF secretion

O=C(O)CCC(=O)c1ccc(F)cc1 [haloperidol metabolite III, 3-(4-Fluorobenzoyl)propionic acid]
affinity for the S1R, in words (human S1R [3]): essentially no detectable affinity

O=C(CCCN1CCC(O)(c2ccc(Cl)cc2)CC1)c1ccc(F)cc1 [haloperidol, Haloperidol]
protection against ischemic stroke (ischemic stroke): protected rats against an ischemic stroke
BDNF secretion from U87MG cells, compound alone (U87MG cells): but not haloperidol, facilitated BDNF secretion
BDNF secretion from CCF-STTG1 cells, compound alone (CCF-STTG1 cells): but not haloperidol, facilitated BDNF secretion

(+)-SKF10047
BDNF secretion from CCF-STTG1 cells, compound alone (CCF-STTG1 cells): facilitated BDNF secretion

Source: paper PMC5375023 (Neurochemistry international, 2017)
